Patent US7915291B2, “Hepatitis C virus inhibitors” (Bristol-Myers Squibb Company, priority 2002, dated 2011)
pEC50, pIC50: −log10 of the molar value. Read-outs that look alike come from different tables or passages of the source.

How the values were obtained:
[1] = target: HCV NS3/4A protease complex, BMS strain (UniProt P27958, C1454S/C1711G, species not given/STRAIN_BMS); assay: Recombinant HCV NS3/4A protease complex FRET peptide assay (BMS strain); assay type: biochemical, HCV genotype 1a; details: NS3/4A BMS strain; read-out: IC50 range
Text: Recombinant HCV NS3/4A Protease Complex FRET Peptide Assay
The purpose of this in vitro assay was to measure the inhibition of HCV NS3 protease complexes, derived from the BMS, H77C or J416S strains, as described below, by compounds of the present invention.
Serum from an HCV-infected patient was obtained from Dr. T. Wright, San Francisco Hospital. An engineered full-length cDNA (compliment deoxyribonucleic acid) template of the HCV genome (BMS strain) was constructed from DNA fragments obtained by reverse transcription-PCR(RT-PCR) of serum RNA (ribonucleic acid) and using primers selected on the basis of homology between other genotype 1a strains.
The BMS, H77C and J4L6S strains were used for production of recombinant NS3/4A protease complexes. […] Briefly, a three-lysine solubilizing tail was added at the 3′-end of the NS4A coding region. […] Briefly, NS3/4A expression was induced with 0.5 mM Isopropyl β-D-1-thiogalactopyranoside (IPTG) for 22 hr at 20° C. […] The crude protein extract was loaded on a Nickel—Nitrilotriacetic acid (Ni-NTA) column pre-equilibrated with buffer B (25 mM HEPES, pH8.0, 20% glycerol, 500 mM NaCl, 0.5% Triton-X100, 15 mM imidazole, 5 mM βME). The sample was loaded at a flow rate of 1 mL/min. The column was washed with 15 column volumes of buffer C (same as buffer B except with 0.2% Triton-X100). The protein was eluted with 5 column volumes of buffer D (same as buffer C except with 200 mM Imidazole).
NS3/4A protease complex-containing fractions were pooled and loaded on a desalting column Superdex-S200 pre-equilibrated with buffer D (25 mM HEPES, pH7.5, 20% glycerol, 300 mM NaCl, 0.2% Triton-X100, 10 mM βME). Sample was loaded at a flow rate of 1 mL/min. NS3/4A protease complex-containing fractions were pooled and concentrated to approximately 0.5 mg/ml.
The enzyme was stored at −80° C., thawed on ice and diluted prior to use in assay buffer. […] The sequence of this peptide is loosely based on the NS4A/NS4B natural cleavage site except there is an ester linkage rather than an amide bond at the cleavage site. The peptide substrate was incubated with one of the three recombinant NS3/4A complexes, in the absence or presence of a compound of the present invention, and the formation of fluorescent reaction product was followed in real time using a Cytofluor Series 4000.
The reagents were as follow: HEPES and Glycerol (Ultrapure) were obtained from GIBCO-BRL. Dimethyl Sulfoxide (DMSO) was obtained from Sigma. β-Mercaptoethanol was obtained from Bio Rad.
Substrate: 2 μM final concentration (from a 2 mM stock solution in DMSO stored at −20° C.). HCV NS3/4A type 1a (1b), 2-3 nM final concentration (from a 5 μM stock solution in 25 mM HEPES, pH7.5, 20% glycerol, 300 mM NaCl, 0.2% Triton-X100, 10 mM βME).
The assay was performed in a 96-well polystyrene black plate from Falcon. Each well contained 25 μl NS3/4A protease complex in assay buffer, 50 μof a compound of the present invention in 10% DMSO/assay buffer and 25 μl substrate in assay buffer. A control (no compound) was also prepared on the same assay plate. The enzyme complex was mixed with compound or control solution for 1 min before initiating the enzymatic reaction by the addition of substrate. The assay plate was read immediately using the Cytofluor Series 4000 (Perspective Biosystems). The instrument was set to read an […] at 25° C. Reactions were generally followed for approximately 15 minutes.
The percent inhibition was calculated with the following equation: 100−[(δFinh/δFcon)×100] where δF is the change in fluorescence over the linear range of the curve.

[2] = system: HCV replicon in Huh7 cells; assay: HCV replicon cell-based assay; parameters: species or system HCV strain 1B; details: HCV replicon, Huh7 cells, read-out: EC50 range
Text: HCV Replicon Cell-based Assay
This system enabled us to evaluate the effects of our HCV Protease compounds on HCV RNA replication. Briefly, using the HCV strain 1B sequence described in the Lohmann paper (Assession number:AJ238799), an HCV cDNA was generated encoding the 5′ internal ribosome entry site (IRES), the neomycin resistance gene, the EMCV (encephalomyocarditis virus)-IRES and the HCV nonstructural proteins, NS3-NS5B, and 3′ non-translated region (NTR). In vitro transcripts of the cDNA were transfected into the human hepatoma cell line, Huh7. […] Resulting cell lines were characterized for positive and negative strand RNA production and protein production over time.
Huh7 cells, constitutively expressing the HCV replicon, were grown in Dulbecco's Modified Eagle Media (DMEM) containing 10% Fetal calf serum (FCS) and 1 mg/ml G418 (Gibco-BRL). Cells were seeded the night before (1.5×10^4 cells/well) in 96-well tissue-culture sterile plates. Compound and no compound controls were prepared in DMEM containing 4% FCS, 1:100 Penicillin/Streptomysin, 1:100 L-glutamine and 5% DMSO in the dilution plate (0.5% DMSO final concentration in the assay). Compound/DMSO mixes were added to the cells and incubated for 4 days at 37° C. After 4 days, plates were rinsed thoroughly with Phosphate-Buffered Saline (PBS) (3 times 150 μl). The cells were lysed with 25 μl of a lysis assay reagent containing the FRET peptide (RET S1, as described for the in vitro enzyme assay). The lysis assay reagent was made from 5× cell Luciferase cell culture lysis reagent(Promega #E153A) diluted to 1× with distilled water, NaCl added to 150 mM final, the FRET peptide diluted to 10 μM final from a 2 mM stock in 100% DMSO. The plate was then placed into the Cytofluor 4000 instrument which had been set to 340 nm excitation/490 emission, automatic mode for 21 cycles and the plate read in a kinetic mode. EC50 determinations were carried out as described for the IC50 determinations.
Cells were lyzed using the Rneasy kit (Qiagen). […] All primers were designed with ABI Prism 7700 software and obtained from Biosearch Technologies, Novato, Calif. Samples containing known concentrations of HCV RNA transcript were run as standards. Using the following cycling protocol (50° C., 30 min; 95° C., 5 min; 40 cycles of 95° C., 15 sec, 60° C., 1 min), HCV RNA expression was quantitated as described in the Perkin Elmer manual using the ABI Prism 7700 Sequence Detector.

Row | Structure (SMILES) | pIC50 [1] | pEC50 ([2]; Hepatitis C virus, Huh-7) | pEC50 [2]
1 | C=CC1CC1(NC(=O)C1CC(Oc2nc(-c3ccccc3)nc3ccc(OC)cc23)CN1C(=O)[C@@H](NC(=O)OC(C)(C)C)C(C)(C)C)C(=O)NS(=O)(=O)C(C)C (mixture of isomers) [Compound 45] | 6.00 to 7.00 | 5.00 to 6.00 | –
2 | C=CC1CC1(NC(=O)C1CC(Oc2nc(C3CC3)nc3cc(OC)c(OC)cc23)CN1C(=O)[C@@H](NC(=O)OC(C)(C)C)C(C)(C)C)C(=O)NS(=O)(=O)C(C)C (mixture of isomers) [Compound 46] | 6.00 to 7.00 | 5.00 to 6.00 | –
3 | C=C[C@@H]1C[C@]1(NC(=O)[C@@H]1C[C@@H](Oc2nccc3cc(OC)ccc23)CN1C(=O)C(NC(=O)OC(C)(C)C)C(C)c1ccccc1)C(=O)NS(=O)(=O)C1CC1 (single isomer, unassigned) [Compound 135] | > 7.00 | 6.00 to 7.00 | –
4 | C=C[C@@H]1C[C@]1(NC(=O)[C@@H]1C[C@@H](Oc2nccc3cc(OC)ccc23)CN1C(=O)C(NC(=O)OC(C)(C)C)C(C)c1ccccc1)C(=O)NS(=O)(=O)C1CC1 (single isomer, unassigned) [Compound 136] | > 7.00 | – | 6.00 to 7.00
5 | C=C[C@@H]1C[C@]1(NC(=O)[C@@H]1C[C@@H](Oc2cc(-c3ccccc3)nc3c(C)noc23)CN1C(=O)[C@@H](NC(=O)OC(C)(C)C)C(C)(C)C)C(=O)NS(=O)(=O)C1CC1 [Compound 1] | > 7.00 | > 7.00 | –
6 | C=C[C@@H]1C[C@]1(NC(=O)[C@@H]1C[C@@H](Oc2cc(-c3ccccc3)nc3nc(C)ccc23)CN1C(=O)[C@@H](NC(=O)OC(C)(C)C)C(C)(C)C)C(=O)NS(=O)(=O)C1CC1 [Compound 2] | > 7.00 | 6.00 to 7.00 | –
7 | C=C[C@@H]1C[C@]1(NC(=O)[C@@H]1C[C@@H](Oc2cc(-c3ccc(OC)cc3)nc3c(C)noc23)CN1C(=O)[C@@H](NC(=O)OC(C)(C)C)C(C)(C)C)C(=O)NS(=O)(=O)C1CC1 [Compound 3] | > 7.00 | > 7.00 | –
8 | C=C[C@@H]1C[C@]1(NC(=O)[C@@H]1C[C@@H](Oc2cc(-c3ccc(F)cc3)nc3c(C)noc23)CN1C(=O)[C@@H](NC(=O)OC(C)(C)C)C(C)(C)C)C(=O)NS(=O)(=O)C1CC1 [Compound 4] | > 7.00 | > 7.00 | –
9 | C=C[C@@H]1C[C@]1(NC(=O)[C@@H]1C[C@@H](Oc2cc(-c3cccc(OC)c3)nc3c(C)noc23)CN1C(=O)[C@@H](NC(=O)OC(C)(C)C)C(C)(C)C)C(=O)NS(=O)(=O)C1CC1 [Compound 5] | > 7.00 | > 7.00 | –
10 | C=C[C@@H]1C[C@]1(NC(=O)[C@@H]1C[C@@H](Oc2cc(-c3ccccc3OC)nc3c(C)noc23)CN1C(=O)[C@@H](NC(=O)OC(C)(C)C)C(C)(C)C)C(=O)NS(=O)(=O)C1CC1 [Compound 6] | 6.00 to 7.00 | 6.00 to 7.00 | –
11 | C=C[C@@H]1C[C@]1(NC(=O)[C@@H]1C[C@@H](Oc2ccc3ccccc3n2)CN1C(=O)[C@@H](NC(=O)OC(C)(C)C)C(C)(C)C)C(=O)NS(=O)(=O)C1CC1 [Compound 7] | > 7.00 | 6.00 to 7.00 | –
12 | C=CC1CC1(NC(=O)[C@@H]1C[C@@H](Oc2cc(C(F)(F)F)nc3nc(C)ccc23)CN1C(=O)[C@@H](NC(=O)OC(C)(C)C)C(C)(C)C)C(=O)NS(=O)(=O)C1CC1 (some centres unmarked) [Compound 8] | 6.00 to 7.00 | 5.00 to 6.00 | –
13 | C=CC1CC1(NC(=O)[C@@H]1C[C@@H](Oc2cc(CC)nc3c(C)noc23)CN1C(=O)[C@@H](NC(=O)OC(C)(C)C)C(C)(C)C)C(=O)NS(=O)(=O)C1CC1 (some centres unmarked) [Compound 9] | > 7.00 | 6.00 to 7.00 | –
14 | C=CC1CC1(NC(=O)[C@@H]1C[C@@H](Oc2cc(-c3ccccc3)nc3c(C)noc23)CN1C(=O)[C@@H](NC(=O)OC(C)(C)C)C(C)(C)C)C(=O)NS(=O)(=O)C1CC1 (some centres unmarked) [Compound 10] | > 7.00 | > 7.00 | –
15 | C=C[C@@H]1C[C@]1(NC(=O)[C@@H]1C[C@@H](Oc2nccc3cc(OC)ccc23)CN1C(=O)[C@@H](NC(=O)OC(C)(C)C)C(C)(C)C)C(=O)NS(=O)(=O)C1CC1 [Compound 11] | > 7.00 | > 7.00 | –
16 | C=C[C@@H]1C[C@]1(NC(=O)[C@@H]1C[C@@H](Oc2nccc3cc(OC)ccc23)CN1C(=O)[C@@H](NC(=O)OC(C)(C)C)C(C)C)C(=O)NS(=O)(=O)C1CC1 [Compound 12] | > 7.00 | > 7.00 | –
17 | C=C[C@@H]1C[C@]1(NC(=O)[C@@H]1C[C@@H](Oc2nccc3cc(OC)ccc23)CN1C(=O)[C@@H](NC(=O)OC(C)(C)C)[C@H](C)CC)C(=O)NS(=O)(=O)C1CC1 [Compound 13] | > 7.00 | > 7.00 | –
18 | CC[C@@H]1C[C@]1(NC(=O)[C@@H]1C[C@@H](Oc2nccc3cc(OC)ccc23)CN1C(=O)[C@@H](NC(=O)OC(C)(C)C)C(C)(C)C)C(=O)NS(=O)(=O)C1CC1 [Compound 14] | > 7.00 | > 7.00 | –
19 | CC[C@@H]1C[C@]1(NC(=O)[C@@H]1C[C@@H](Oc2nccc3cc(OC)ccc23)CN1C(=O)[C@@H](NC(=O)OC(C)(C)C)C(C)(C)C)C(=O)NS(=O)(=O)C(C)C [Compound 15] | 6.00 to 7.00 | 5.00 to 6.00 | –
20 | C=C[C@@H]1C[C@]1(NC(=O)[C@@H]1C[C@@H](Oc2nccc3cc(OC)ccc23)CN1C(=O)[C@@H](NC(=O)N[C@@H](C)COC)C(C)(C)C)C(=O)NS(=O)(=O)C1CC1 [Compound 153] | – | > 7.00 | –
21 | C=C[C@@H]1C[C@]1(NC(=O)[C@@H]1C[C@@H](Oc2ncc(OC)c3ccc(Cl)cc23)CN1C(=O)[C@@H](NC(=O)OC(C)(C)C)C(C)(C)C)C(=O)NS(=O)(=O)C1CC1 [Compound 277] | – | > 7.00 | –
22 | C=C[C@@H]1C[C@]1(NC(=O)[C@@H]1C[C@@H](Oc2ccnc3cc(OC)ccc23)CN1C(=O)[C@@H](NC(=O)OC(C)(C)C)C(C)(C)C)C(=O)NS(=O)(=O)C1CC1 [Compound 376] | – | > 7.00 | –
